This is an account of results in patent US20130295692A1, “MEANS AND METHODS FOR PREDICTING DIABETES” (METANOMICS HEALTH GMBH, priority 2010, published 2013).

SMILES strings stand for the structures. Structures can show the parent of a compound that is named as a salt.

In the assay the test system is healthy rat plasma glyoxylate concentrations. Description: Rats treated with anti-diabetic drug metformin: 28-day oral gavage study, plasma metabolite profiling of glyoxylate. Particulars: for Ratio treatment/control of plasma glyoxylate: fasted plasma. It is filed as in vivo. As to the method: Two groups of each 5 male and female rats was dosed once daily with the indicated compounds with a different dose per group (see below) over 28 days.
Each dose group in the studies consisted of five rats per sex. Additional groups of each 15 male and 15 female animals served as controls. Before starting the treatment period, animals, which were 62-64 days old when supplied, were acclimatized to the housing and environmental conditions for 7 days. All animals of the animal population were kept under the same constant temperature (20-24±3° C.) and the same constant humidity (30-70%). The animals of the animal population were fed ad libitum. The food to be used was essentially free of chemical or microbial contaminants. Drinking water was also offered ad libitum. Accordingly, the water was free of chemical and microbial contaminants as laid down in the European Drinking Water Directive 98/83/EG. The illumination period was 12 hours light followed by 12 hours darkness (12 hours light, from 6:00 to 18:00, and 12 hours darkness, from 18:00 to 6:00). The studies were performed in an AAALAC-approved laboratory in accordance with the German Animal Welfare Act and the European Council Directive 86/609/EE. The test system was arranged according to the OECD 407 guideline for the testing of chemicals for repeated dose 28-day oral toxicity study in rodents. The test substance was dosed and administered as follows:
Metformin hydrochloride was administered by gavage (high dose group at 1 g/kg body weight, low dose group at 0.2 g/kg body weight), in drinking water containing 0.5% Carboxymethyl cellulose (Tylose CB30000) (administration volume: 10 ml/kg body weight).
In the morning of day 7, 14, and 28, blood was taken from the retroorbital venous plexus from fasted anaesthetized animals. From each animal, 1 ml of blood was collected with EDTA as anticoagulant. The samples were centrifuged for generation of plasma. All plasma samples were covered with a N2 atmosphere and then stored at −80° C. until analysis.
For mass spectrometry-based metabolite profiling analyses plasma samples were extracted and a polar and a non-polar (lipid) fraction was obtained. For GC-MS analysis, the non-polar fraction was treated with methanol under acidic conditions to yield the fatty acid methyl esters. Both fractions were further derivatised with O-methyl-hydroxyamine hydrochloride and pyridine to convert Oxo-groups to O-methyloximes and subsequently with a silylating agent before analysis. In LC-MS analysis, both fractions were reconstituted in appropriate solvent mixtures. HPLC was performed by gradient elution on reversed phase separation columns. Mass spectrometric detection which allows target and high sensitivity MRM (Multiple Reaction Monitoring) profiling in parallel to a full screen analysis was applied as described in WO2003073464.
Following comprehensive analytical validation steps, the data for each analyte were normalized against data from pool samples. These samples were run in parallel through the whole process to account for process variability. The significance of treatment group values specific for sex, treatment duration and metabolite was determined by comparing means of the treated groups to the means of the respective untreated control groups using WELCH-test and quantified with treatment ratios versus control and p-values.

For `CN(C)C(=N)NC(=N)N` [Metformin hydrochloride, N,N-dimethylimidodicarbonimidic diamide], the “Ratio treatment/control of plasma glyoxylate” value (from here on “Ratio treatment/control”) (High Dose 1 g/kg body weight by gavage once daily, female rats, day 7 (f7)) worked out at 0.82; the “Ratio treatment/control” value (High Dose 1 g/kg body weight by gavage once daily, female rats, day 14 (f14)) is on record as 0.58; the “Ratio treatment/control” value (High Dose 1 g/kg body weight by gavage once daily, female rats, day 28 (f28)) is 0.52; the “Ratio treatment/control” value (High Dose 1 g/kg body weight by gavage once daily, male rats, day 7 (m7)) was found to be 0.22; the “Ratio treatment/control” value (High Dose 1 g/kg body weight by gavage once daily, male rats, day 14 (m14)) was determined as 0.29; the “Ratio treatment/control” value (High Dose 1 g/kg body weight by gavage once daily, male rats, day 28 (m28)) is reported as 0.58. Also, the “Ratio treatment/control” value is 1.01 (Low Dose 0.2 g/kg body weight by gavage once daily, female rats, day 7 (f7)); 0.72 (Low Dose 0.2 g/kg body weight by gavage once daily, female rats, day 14 (f14)); 0.64 (Low Dose 0.2 g/kg body weight by gavage once daily, female rats, day 28 (f28)); 0.59 (Low Dose 0.2 g/kg body weight by gavage once daily, male rats, day 7 (m7)); 0.65 (Low Dose 0.2 g/kg body weight by gavage once daily, male rats, day 14 (m14)); 0.44 (Low Dose 0.2 g/kg body weight by gavage once daily, male rats, day 28 (m28)). Also, the “Effect on glyoxylate concentrations in rat model system (summary in words)” value (rat model system, summary of Table 8) is recorded as “capable of reducing glyoxylate concentrations”.
